Holding throughout (test): NCI tumour cell line growth inhibition, 48 h
Test [1] concerns SF-268 CNS.
Test [2] relates to SW-620 colon.
Test [3] relates to OVCAR-3 ovarian.
For test [4], the system named is NCI-H226 lung.

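Interpolation was linear, between the two tested concentrations surrounding the appropriate level; five concentrations were tested over 48 hours in 96-well plates. TGI: total growth inhibition.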

Drawing on PubChem BioAssay (NCI), this text covers TGI for 27 compounds.

With `CSc1ncnc2c1ncn2C1CC(Oc2ccc(C)cc2)C(COc2ccc(C)cc2)O1` (configuration not stated), the TGI in test [1], in test [2], in test [3] and in test [4] was over 100 µM each time.
`O=c1cc(-c2ccc(F)cc2)[nH]c2ncc(Cl)cc12`: the TGI in test [1] was over 100 µM; in test [2], over 100 µM; in test [3], over 70.5 µM; in test [4], over 56 µM.
On to `COC(CNC(=O)C(C)NC(=O)CCc1ccccc1)OC` (configuration not stated), for which the TGI in test [1], in test [2] and in test [4] was over 100 µM throughout.
Take `CC12C(=O)CC(CC1=O)C2(C)C`: the TGI in test [1], in test [2], in test [3] and in test [4] was over 100 µM throughout.
In the case of `Oc1ccc(-c2nc(-c3cccnc3)c(-c3ccc(Cl)cc3)[nH]2)cc1`, the TGI in test [1] came to 29.6 µM; in test [2], 29.9 µM; in test [3], 28 µM; in test [4], 33.3 µM.
For the compound `COc1cc(/C=C2\C(=O)N(c3ccccc3)C(c3ccccc3)S2(=O)=O)cc(OC)c1OC` (configuration not stated), the TGI in test [1], in test [2], in test [3] and in test [4] was over 100 µM throughout.
For `O=C(NNC(=S)Nc1cccc(Cl)c1)c1cc(-c2ccccc2)nc2ccccc12`, the TGI stood at 35.4 µM in test [1], 31.3 µM in test [2], 34.3 µM in test [3] and 40.5 µM in test [4].
Taken in the same sequence, the figures for `Cc1c(S(=O)(=O)/N=C(\NO)Nc2ccc(Cl)c(Cl)c2)sc2ccc(Cl)cc12` were 58.8 µM, over 100 µM, 31.1 µM and 43.8 µM.
As to `CCOC(=O)c1cc(C(O)P2(=O)N(CC(C)(C)C)[C@@H]3CCCC[C@H]3N2CC(C)(C)C)cn1C(=O)OC(C)(C)C` (some centres not stated), the TGI amounted to 38.4 µM in test [1], 32.6 µM in test [2], 25 µM in test [3] and 39.4 µM in test [4].
`CC(C)(C)OC(=O)NC(Cc1ccc(OCc2ccccc2)cn1)C(=O)N1CCCCC1` (configuration not stated): the TGI in test [1], in test [2] and in test [3] was over 100 µM in each case.
Consider `CCOC(=O)CNc1c(OCc2ccccc2)c(=O)c1=O`, for which the TGI in test [1], in test [2], in test [3] and in test [4] was over 100 µM each time.
As for `O=C(c1ccc(N=Cc2ccccc2O)cc1)c1ccc(N=Cc2ccccc2O)cc1`, the TGI in test [1], in test [2], in test [3] and in test [4] was over 100 µM each time.
Turning to `C=CC(CCc1ccc(C(=O)OCC)cc1)c1c(N)nc(N)[nH]c1=O` (configuration not stated), the TGI in test [1], in test [2], in test [3] and in test [4] was over 100 µM throughout.
As for `c1ccc2c(c1)ccn2CCc1c[nH]c2ccccc12`, the TGI in test [1], in test [2], in test [3] and in test [4] was over 10 µM in each case.
Regarding `O=C1C=C(C2=CC(=O)C(=O)c3ccccc32)c2ccccc2C1=O`, the TGI in test [1] is 48.3 µM; in test [2] it was 31.4 µM; in test [3], 20.7 µM; in test [4], over 100 µM.
The matching figures for `CC(=O)OC(/C=C/c1ccccc1)=C(OC(C)C)/C1=C(\c2ccccc2)SCCCSC1=O`: over 100 µM, over 100 µM, over 100 µM and over 100 µM.
Take `Nc1cc2[nH]c(=O)c(=O)[nH]c2cc1N`: the TGI in test [1], in test [2], in test [3] and in test [4] was over 100 µM each time.
`CN1CCC(O)(C(C)(C)C)CC1`: the TGI in test [1], in test [2], in test [3] and in test [4] was over 100 µM in each case.
As for `CON(C)C(=O)CNC(=O)OCC1c2ccccc2-c2ccccc21`, the TGI in test [1], in test [2], in test [3] and in test [4] was over 100 µM each time.
For the compound `O=C1CSC(c2cccc(Oc3ccccc3)c2)N1c1ccc(Cl)cc1` (configuration not stated), the TGI in test [1], in test [2], in test [3] and in test [4] was over 100 µM in each case.
In the case of `NN/C(=N\S(=O)(=O)c1cc2ccccc2s1)Nc1ccc(Cl)cc1`, the TGI was determined as 37.9 µM in test [1], 54.9 µM in test [2], 34.5 µM in test [3] and 36.5 µM in test [4].
For the compound `Cc1ccc([N+](=O)[O-])cc1S(=O)(=O)Nc1ccc(C2=NNC(c3ccccc3)C2)cc1` (configuration not stated), the TGI is over 100 µM in test [1], over 100 µM in test [2], 20.4 µM in test [3] and over 100 µM in test [4].
With `Cc1nc(-c2cc3cc([N+](=O)[O-])ccc3oc2=O)cs1`, the TGI in test [1], in test [2] and in test [4] was over 100 µM throughout.
For `O=Cc1ccc2c(c1)CC1(Cc3ccccc3C1)C2`, the TGI in test [3] came out at 28.3 µM; in test [4], 73.2 µM.
For `NC(Cc1ccccc1)C(=O)N[C@H]1c2ccsc2/C(=N/O)[C@H]1O` (some centres not stated), the TGI in test [2], in test [3] and in test [4] was over 100 µM in each case.
On to `CCN(CC)C(=S)N/N=C(/C)c1cccc(/C(C)=N\NC(=S)N(CC)CC)n1`, for which the TGI in test [1] was determined as 7.47 µM; in test [2], 15.2 µM; in test [3], 7.44 µM; in test [4] it was 4.77 µM.
The matching figures for `O=C(NI1OC(=O)c2ccccc21)c1ccc(Cl)cc1`: over 100 µM, over 100 µM, over 100 µM and over 100 µM.
